# Active and inactive are the calls of the source. The calls are words filed in the database; no cut-off is given here.
# Assays:
# [1] = target: Cyclin-dependent kinase 1 (Homo sapiens) (UniProt P06493); test: Inhibition of CDC2 Lys2 labeling site in human Huh-7 cells at 1 uM by KiNativ Profiling analysis relative to control; type: cell-based
# [2] = target: T1, Mitogen-activated protein kinase kinase kinase 5 (Homo sapiens) (UniProt Q99683); test: Inhibition of MAP3K5 Lys1 labeling site harbouring IAIKEIPER in human A-375 cells at 5 uM by KiNativ Profiling analysis relative to control; type: cell-based
# T1 sequence (whole entry): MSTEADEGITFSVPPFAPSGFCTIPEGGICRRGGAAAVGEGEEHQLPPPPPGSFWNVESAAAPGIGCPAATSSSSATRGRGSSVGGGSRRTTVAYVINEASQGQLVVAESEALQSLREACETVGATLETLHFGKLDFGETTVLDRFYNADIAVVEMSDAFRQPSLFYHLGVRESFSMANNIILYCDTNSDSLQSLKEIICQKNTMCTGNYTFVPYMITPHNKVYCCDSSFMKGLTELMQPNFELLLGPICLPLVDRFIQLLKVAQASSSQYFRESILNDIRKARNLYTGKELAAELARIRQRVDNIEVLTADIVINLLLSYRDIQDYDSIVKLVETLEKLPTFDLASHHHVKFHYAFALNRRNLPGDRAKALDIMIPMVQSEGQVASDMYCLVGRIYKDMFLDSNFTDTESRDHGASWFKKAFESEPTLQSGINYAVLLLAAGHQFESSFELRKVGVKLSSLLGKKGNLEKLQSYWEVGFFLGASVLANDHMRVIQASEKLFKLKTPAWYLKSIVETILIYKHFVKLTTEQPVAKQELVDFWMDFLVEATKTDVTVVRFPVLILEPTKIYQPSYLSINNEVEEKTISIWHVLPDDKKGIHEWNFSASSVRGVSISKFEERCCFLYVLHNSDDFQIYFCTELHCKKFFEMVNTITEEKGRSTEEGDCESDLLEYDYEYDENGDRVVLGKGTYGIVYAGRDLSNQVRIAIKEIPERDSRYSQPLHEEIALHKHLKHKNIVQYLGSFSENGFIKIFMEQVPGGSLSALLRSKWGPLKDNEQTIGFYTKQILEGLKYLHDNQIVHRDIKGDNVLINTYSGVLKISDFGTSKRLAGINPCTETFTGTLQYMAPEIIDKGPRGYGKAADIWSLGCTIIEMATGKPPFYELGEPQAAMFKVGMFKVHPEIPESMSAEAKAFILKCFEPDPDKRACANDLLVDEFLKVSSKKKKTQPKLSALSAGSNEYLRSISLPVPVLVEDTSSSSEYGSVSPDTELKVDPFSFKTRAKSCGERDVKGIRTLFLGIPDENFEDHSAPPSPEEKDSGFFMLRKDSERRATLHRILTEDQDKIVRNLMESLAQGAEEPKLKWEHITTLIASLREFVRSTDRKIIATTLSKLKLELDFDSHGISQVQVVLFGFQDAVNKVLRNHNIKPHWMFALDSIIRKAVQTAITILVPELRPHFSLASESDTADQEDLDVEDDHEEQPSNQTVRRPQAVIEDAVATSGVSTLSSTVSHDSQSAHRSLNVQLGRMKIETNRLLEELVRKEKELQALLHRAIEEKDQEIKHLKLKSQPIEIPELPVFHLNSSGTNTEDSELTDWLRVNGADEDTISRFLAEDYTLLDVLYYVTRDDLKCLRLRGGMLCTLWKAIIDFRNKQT
# [3] = system: Tyrosine-protein kinase ABL1 (Homo sapiens), P00519 [H396P]; test: Inhibition of ABL1 H396P mutant (unknown origin) at 10 uM by Ambit Kinomescan binding assay relative to control
# [4] = target: Tyrosine-protein kinase Tec (Homo sapiens) (UniProt P42680); test: Inhibition of TEC (unknown origin) at 10 uM by Ambit Kinomescan binding assay
# [5] = target: Tyrosine-protein kinase ABL2 (Homo sapiens, UniProt P42684); test: Inhibition of ARG Lys1 labeling site in human A-375 cells at 0.05 uM by KiNativ Profiling analysis relative to control; type: cell-based
# [6] = target: AMPK alpha1/alpha2 (Homo sapiens) (UniProt P54646+Q13131); test: Inhibition of AMPK alpha1/2 K2 labeling site in human Huh-7 cells at 10 uM by KiNativ Profiling analysis relative to control; type: cell-based
# [7] = target: 5'-AMP-activated protein kinase catalytic subunit alpha-2 (Homo sapiens) (UniProt P54646); test: Inhibition of AMPKa2 Lys2 labeling site in human A-375 cells at 5 uM by KiNativ Profiling analysis relative to control; type: cell-based
# [8] = target: Serine/threonine-protein kinase RIO3 (Homo sapiens) (UniProt O14730); test: Inhibition of RIOK3 (unknown origin) at 1 uM by Ambit Kinomescan binding assay relative to control
# [9] = target: Serine/threonine-protein kinase 17B (Homo sapiens) (UniProt O94768); test: Inhibition of DRAK2 (unknown origin) at 1 uM by Ambit Kinomescan binding assay relative to control; values are per cent of control
# [10] = target: T2, Aurora kinase A (Homo sapiens) (UniProt O14965); test: Inhibition of AurA Lys2 labeling site in human A-375 cells at 0.05 uM by KiNativ Profiling analysis relative to control; type: cell-based
# T2 sequence (whole entry): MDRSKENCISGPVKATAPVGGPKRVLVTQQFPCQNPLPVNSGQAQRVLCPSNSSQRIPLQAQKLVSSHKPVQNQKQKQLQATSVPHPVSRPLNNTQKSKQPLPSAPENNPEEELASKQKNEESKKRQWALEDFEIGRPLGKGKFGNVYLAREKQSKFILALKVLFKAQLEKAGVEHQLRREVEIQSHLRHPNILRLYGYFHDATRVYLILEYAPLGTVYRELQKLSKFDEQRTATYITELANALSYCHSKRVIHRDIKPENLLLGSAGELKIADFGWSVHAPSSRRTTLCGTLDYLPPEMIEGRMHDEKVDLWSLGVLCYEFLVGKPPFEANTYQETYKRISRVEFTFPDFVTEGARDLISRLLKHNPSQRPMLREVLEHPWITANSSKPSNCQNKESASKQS
# [11] = target: Protein-tyrosine kinase 6 (Homo sapiens) (UniProt Q13882); test: Inhibition of BRK (unknown origin) at 1 uM by Ambit Kinomescan binding assay relative to control; values are per cent of control
# Chain of Protein-tyrosine kinase 6 (Homo sapiens) (Q13882 whole entry, looked up): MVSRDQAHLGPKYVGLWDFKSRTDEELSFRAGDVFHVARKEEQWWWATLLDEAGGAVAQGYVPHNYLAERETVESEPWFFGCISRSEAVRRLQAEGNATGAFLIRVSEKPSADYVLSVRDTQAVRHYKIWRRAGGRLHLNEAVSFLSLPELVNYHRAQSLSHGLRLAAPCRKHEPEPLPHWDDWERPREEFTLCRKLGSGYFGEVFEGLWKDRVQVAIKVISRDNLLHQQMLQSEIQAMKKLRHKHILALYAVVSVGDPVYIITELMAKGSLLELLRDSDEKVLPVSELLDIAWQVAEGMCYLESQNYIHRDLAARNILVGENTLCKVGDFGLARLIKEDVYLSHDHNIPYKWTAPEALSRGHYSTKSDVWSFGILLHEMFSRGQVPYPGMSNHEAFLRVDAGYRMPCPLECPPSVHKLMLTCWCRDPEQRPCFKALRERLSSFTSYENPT
# Chain of Cyclin-dependent kinase 1 (Homo sapiens) (P06493 whole entry, looked up): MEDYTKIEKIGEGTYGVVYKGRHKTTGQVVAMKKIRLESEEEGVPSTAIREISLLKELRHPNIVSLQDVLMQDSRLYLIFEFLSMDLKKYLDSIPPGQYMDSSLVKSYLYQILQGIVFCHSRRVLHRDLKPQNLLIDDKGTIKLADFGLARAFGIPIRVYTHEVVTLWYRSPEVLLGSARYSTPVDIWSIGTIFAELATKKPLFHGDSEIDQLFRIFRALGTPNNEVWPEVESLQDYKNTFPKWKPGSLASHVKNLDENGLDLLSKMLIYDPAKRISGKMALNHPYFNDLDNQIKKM
# Chain of Tyrosine-protein kinase Tec (Homo sapiens) (P42680 whole entry, looked up): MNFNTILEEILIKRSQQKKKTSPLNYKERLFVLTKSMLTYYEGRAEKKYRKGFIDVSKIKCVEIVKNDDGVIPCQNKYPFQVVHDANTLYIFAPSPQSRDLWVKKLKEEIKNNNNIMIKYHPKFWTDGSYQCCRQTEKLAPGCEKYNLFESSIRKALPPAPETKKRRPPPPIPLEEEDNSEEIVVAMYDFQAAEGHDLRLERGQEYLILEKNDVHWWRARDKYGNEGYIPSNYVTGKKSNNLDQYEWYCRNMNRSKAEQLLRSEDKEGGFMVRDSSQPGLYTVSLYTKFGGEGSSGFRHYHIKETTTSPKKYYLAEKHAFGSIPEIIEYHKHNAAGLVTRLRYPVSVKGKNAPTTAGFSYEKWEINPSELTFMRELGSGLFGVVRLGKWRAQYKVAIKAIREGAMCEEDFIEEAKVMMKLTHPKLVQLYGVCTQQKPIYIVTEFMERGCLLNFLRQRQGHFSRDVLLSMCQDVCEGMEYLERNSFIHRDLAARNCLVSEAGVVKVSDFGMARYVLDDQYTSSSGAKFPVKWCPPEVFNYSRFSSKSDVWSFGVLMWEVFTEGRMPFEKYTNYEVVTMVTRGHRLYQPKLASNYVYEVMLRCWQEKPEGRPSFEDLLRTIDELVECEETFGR
# Chain of Serine/threonine-protein kinase RIO3 (Homo sapiens) (O14730 whole entry): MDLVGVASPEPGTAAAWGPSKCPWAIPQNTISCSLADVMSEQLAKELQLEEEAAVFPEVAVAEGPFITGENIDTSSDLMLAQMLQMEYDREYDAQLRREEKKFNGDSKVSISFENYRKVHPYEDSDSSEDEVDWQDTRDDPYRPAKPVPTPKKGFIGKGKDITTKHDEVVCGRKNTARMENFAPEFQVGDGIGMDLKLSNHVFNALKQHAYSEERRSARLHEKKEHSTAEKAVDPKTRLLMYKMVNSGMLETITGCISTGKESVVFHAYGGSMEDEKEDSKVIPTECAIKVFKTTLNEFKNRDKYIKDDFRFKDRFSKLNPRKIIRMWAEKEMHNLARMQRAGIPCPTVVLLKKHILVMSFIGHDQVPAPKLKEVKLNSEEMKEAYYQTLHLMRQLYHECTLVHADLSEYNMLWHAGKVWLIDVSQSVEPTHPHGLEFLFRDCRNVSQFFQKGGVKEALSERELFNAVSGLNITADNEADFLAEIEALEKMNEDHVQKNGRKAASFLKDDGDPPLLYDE
# Chain of Tyrosine-protein kinase ABL2 (P42684 whole entry): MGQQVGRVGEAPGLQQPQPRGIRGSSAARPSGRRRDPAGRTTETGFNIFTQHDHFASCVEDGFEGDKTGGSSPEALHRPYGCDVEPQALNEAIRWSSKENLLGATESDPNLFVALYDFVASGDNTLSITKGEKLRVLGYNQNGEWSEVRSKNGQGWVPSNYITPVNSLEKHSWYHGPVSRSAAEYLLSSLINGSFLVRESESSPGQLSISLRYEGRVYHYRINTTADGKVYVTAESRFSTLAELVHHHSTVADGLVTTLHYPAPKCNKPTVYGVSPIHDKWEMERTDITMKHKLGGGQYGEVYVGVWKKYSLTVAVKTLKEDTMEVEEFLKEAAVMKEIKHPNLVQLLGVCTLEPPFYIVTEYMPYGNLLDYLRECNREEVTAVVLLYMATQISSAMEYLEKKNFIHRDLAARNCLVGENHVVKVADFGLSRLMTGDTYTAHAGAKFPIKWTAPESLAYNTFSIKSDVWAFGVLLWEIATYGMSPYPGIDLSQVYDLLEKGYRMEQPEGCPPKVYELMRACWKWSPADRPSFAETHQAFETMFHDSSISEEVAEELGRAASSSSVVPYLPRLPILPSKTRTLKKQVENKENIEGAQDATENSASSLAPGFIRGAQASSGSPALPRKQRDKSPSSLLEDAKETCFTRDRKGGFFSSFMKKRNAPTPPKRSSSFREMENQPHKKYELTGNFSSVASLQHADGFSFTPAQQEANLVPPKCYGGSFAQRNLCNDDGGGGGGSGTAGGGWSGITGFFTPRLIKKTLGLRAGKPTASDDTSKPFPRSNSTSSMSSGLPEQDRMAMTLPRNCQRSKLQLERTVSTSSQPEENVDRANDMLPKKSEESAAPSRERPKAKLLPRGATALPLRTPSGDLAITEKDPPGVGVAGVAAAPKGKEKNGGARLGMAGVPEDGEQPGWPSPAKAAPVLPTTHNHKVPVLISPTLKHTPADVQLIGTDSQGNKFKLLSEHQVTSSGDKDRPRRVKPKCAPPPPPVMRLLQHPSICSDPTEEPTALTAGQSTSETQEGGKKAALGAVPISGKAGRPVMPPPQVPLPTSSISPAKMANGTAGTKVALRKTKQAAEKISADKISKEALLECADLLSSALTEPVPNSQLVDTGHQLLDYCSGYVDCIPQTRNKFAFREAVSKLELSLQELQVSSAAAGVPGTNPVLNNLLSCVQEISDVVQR
# Chain of Serine/threonine-protein kinase 17B (Homo sapiens) (O94768 whole entry): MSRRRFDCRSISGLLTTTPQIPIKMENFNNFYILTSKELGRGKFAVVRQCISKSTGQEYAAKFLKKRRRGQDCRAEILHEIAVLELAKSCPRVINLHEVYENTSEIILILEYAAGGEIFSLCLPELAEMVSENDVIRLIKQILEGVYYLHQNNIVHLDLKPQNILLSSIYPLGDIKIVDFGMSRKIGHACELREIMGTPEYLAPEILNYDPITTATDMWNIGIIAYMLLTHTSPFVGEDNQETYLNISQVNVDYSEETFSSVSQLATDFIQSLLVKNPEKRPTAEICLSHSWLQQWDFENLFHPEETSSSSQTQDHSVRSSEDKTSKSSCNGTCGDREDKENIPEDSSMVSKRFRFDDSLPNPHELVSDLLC
# Chain of AMPK alpha1/alpha2 (Homo sapiens) (P54646 whole entry, looked up): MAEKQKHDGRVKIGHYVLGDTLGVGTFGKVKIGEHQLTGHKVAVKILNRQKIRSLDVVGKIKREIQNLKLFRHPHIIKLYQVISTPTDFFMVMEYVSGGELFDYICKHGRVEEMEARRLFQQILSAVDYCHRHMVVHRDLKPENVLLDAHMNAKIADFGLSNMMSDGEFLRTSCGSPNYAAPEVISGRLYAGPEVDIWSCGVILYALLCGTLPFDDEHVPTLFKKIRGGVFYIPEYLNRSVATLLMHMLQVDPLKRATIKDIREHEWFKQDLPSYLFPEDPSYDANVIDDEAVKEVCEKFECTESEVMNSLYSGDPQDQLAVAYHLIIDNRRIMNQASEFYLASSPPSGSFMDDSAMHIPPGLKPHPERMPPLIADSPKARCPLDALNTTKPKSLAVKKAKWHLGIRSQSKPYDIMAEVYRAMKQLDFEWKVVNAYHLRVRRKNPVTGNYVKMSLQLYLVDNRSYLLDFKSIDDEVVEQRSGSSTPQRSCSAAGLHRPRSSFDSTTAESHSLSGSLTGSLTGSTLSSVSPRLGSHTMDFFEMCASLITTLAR
# Chain of AMPK alpha1/alpha2 (Homo sapiens) (Q13131 whole entry, looked up): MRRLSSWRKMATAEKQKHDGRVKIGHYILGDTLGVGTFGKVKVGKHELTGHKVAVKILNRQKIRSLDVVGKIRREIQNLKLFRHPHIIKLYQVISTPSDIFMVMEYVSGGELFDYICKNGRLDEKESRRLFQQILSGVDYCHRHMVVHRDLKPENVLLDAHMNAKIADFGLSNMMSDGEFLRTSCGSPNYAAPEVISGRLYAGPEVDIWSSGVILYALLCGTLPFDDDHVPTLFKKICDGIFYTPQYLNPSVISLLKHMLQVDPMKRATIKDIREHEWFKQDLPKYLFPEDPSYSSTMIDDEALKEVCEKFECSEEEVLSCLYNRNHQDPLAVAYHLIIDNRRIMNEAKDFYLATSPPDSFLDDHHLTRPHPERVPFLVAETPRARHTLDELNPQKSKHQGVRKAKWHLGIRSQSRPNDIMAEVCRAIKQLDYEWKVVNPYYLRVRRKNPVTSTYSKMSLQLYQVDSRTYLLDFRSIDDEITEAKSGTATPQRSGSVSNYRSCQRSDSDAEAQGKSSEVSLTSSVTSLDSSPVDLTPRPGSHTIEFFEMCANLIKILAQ
# Chain of 5'-AMP-activated protein kinase catalytic subunit alpha-2 (Homo sapiens) (P54646 whole entry, looked up): as the sequence (P54646 whole entry, looked up) above
structure (smiles),measurement,setting,value
CNc1cc(Oc2cc(C(=O)Nc3cc(N4CCN(C)CC4)cc(C(F)(F)F)c3)ccc2C)ncn1,inhibition,[1],5%
CCN1CCN(Cc2ccc(NC(=O)c3ccc(C)c(Oc4ccnc5[nH]ccc45)c3)cc2C(F)(F)F)CC1,inhibition,[2],-0.6%
same,inhibition,[3],0.7%
same,inhibition,[4],inactive
same,inhibition,[5],84.8%
same,inhibition,[6],6.2%
CCN1CCN(Cc2ccc(NC(=O)c3ccc(C)c(/C=C/c4cnc5[nH]ccc5c4OC)c3)cc2C(F)(F)F)CC1,inhibition,[7],18.5%
same,inhibition,[8],27%
same,residual activity,[9],16%
same,inhibition,[10],-9.1%
same,residual activity,[11],64%

# Reference: ChEMBL document CHEMBL5696442, “Discovery of type II inhibitors of TGFβ-activated kinase 1 (TAK1) and mitogen-activated protein kinase kinase kinase kinase 2 (MAP4K2)” (J Med Chem, 2015)
